According to patent US10131653B2, “Heterocyclic compound” (TAKEDA PHARMACEUTICAL COMPANY LIMITED, priority 2015, dated 2018):
Structures can show the parent of a compound that is named as a salt.

Key:
human OX1 receptor = molecular target: T1, human OX1 receptor (Homo sapiens, UniProt O43613); experiment: Measurement of orexin receptor antagonistic activity (calcium fluorescence, FLIPRtetra); assay type: cell-based; details: CHO, 10 μM test compound; CHO cells expressing human OX1 receptor; OX-A 1 nM; read-out: Human Orexin1 receptor inhibition (at 10 μM)
T1 construct: expressed in transfected cells; host or cells: CHO cells
T1 sequence (O43613 1-425): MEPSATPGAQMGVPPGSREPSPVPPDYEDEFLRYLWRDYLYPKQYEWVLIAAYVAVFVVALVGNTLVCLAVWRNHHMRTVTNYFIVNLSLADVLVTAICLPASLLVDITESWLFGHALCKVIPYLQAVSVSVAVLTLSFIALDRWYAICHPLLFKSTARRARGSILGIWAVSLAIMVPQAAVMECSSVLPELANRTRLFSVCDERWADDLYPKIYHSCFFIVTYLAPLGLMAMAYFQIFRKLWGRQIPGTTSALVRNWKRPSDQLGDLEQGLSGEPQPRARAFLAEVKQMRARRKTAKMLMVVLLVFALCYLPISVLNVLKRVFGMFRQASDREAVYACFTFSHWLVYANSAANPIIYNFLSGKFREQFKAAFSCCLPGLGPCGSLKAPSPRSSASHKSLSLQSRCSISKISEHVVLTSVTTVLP
In short: (§1)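 Calcium fluorescence measured by FLIPRtetra every second for 2 min after orexin-A challenge, 1 nM final for OX1 and 0.3 nM final for OX2. Receptor-expressing CHO cells received compound in HEPES-buffered HBSS with 0.1% BSA just before agonist.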

human OX2 receptor = molecular target: T2, human OX2 receptor (Homo sapiens, UniProt O43614); experiment: as above; assay type: cell-based; details: CHO, 10 μM test compound; CHO cells expressing human OX2 receptor; OX-A 0.3 nM; read-out: Human Orexin2 receptor inhibition (at 10 μM)
T2 construct: expressed in transfected cells; host or cells: CHO cells
T2 sequence (O43614 1-444): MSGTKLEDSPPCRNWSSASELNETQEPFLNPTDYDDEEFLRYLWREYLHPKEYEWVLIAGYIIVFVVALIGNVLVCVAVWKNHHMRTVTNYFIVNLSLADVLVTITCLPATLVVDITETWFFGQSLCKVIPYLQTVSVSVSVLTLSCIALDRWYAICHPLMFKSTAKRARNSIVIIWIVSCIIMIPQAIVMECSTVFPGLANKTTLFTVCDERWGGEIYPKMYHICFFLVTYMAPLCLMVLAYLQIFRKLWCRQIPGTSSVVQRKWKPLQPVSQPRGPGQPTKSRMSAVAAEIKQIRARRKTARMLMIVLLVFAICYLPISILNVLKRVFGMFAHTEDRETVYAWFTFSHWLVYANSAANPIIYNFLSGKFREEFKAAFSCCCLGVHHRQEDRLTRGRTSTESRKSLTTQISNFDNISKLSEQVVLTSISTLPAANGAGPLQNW
In short: as §1

SMILES | inhibition at 10 µM (human OX1 receptor) [%] | inhibition at 10 µM (human OX2 receptor) [%]
C[C@H]1CN(C(=O)c2ccccc2-n2nccn2)CCN(c2ccc(Cl)cn2)O1 [Example 98, ((7S)-2-(5-chloropyridin-2-yl)-7-methyl-1,2,5-oxadiazepan-5-yl) (2-(2H-1,2,3-triazol-2-yl)phenyl)methanone] | 97 | 104
C[C@H]1CN(C(=O)c2ccccc2-n2nccn2)CCN(c2ccn3nccc3n2)O1 [Example 99, ((7S)-7-methyl-2-(pyrazolo[1,5-a]pyrimidin-5-yl)-1,2,5-oxadiazepan-5-yl)(2-(2H-1,2,3-triazol-2-yl)phenyl)methanone] | 87 | 98
Cc1cc(N2CCN(C(=O)c3cc(F)c(F)cc3-n3nccn3)C[C@H](C)O2)nc(C(F)(F)F)n1 [Example 108, (4,5-difluoro-2-(2H-1,2,3-triazol-2-yl)phenyl)((7S)-7-methyl-2-(6-methyl-2-(trifluoromethyl)pyrimidin-4-yl)-1,2,5-oxadiazepan-5-yl)methanone] | 100 | 101
Cc1cc(N2CCN(C(=O)c3ccccc3-c3ncccn3)C[C@H](C)O2)nc(C)n1 [Example 109, ((7S)-2-(2,6-dimethylpyrimidin-4-yl)-7-methyl-1,2,5-oxadiazepan-5-yl)(2-(pyrimidin-2-yl)phenyl)methanone] | 85 | 101
Cc1cc(N2CCN(C(=O)c3ccccc3-c3nc(C)cs3)C[C@H](C)O2)nc(C)n1 [Example 110, ((7S)-2-(2,6-dimethylpyrimidin-4-yl)-7-methyl-1,2,5-oxadiazepan-5-yl)(2-(4-methyl-1,3-thiazol-2-yl)phenyl)methanone] | 79 | 95
Cc1nc(N2CCN(C(=O)c3ccccc3-c3nc(C)no3)C[C@H](C)O2)cc(C(F)(F)F)n1 [Example 111, ((7S)-7-methyl-2-(2-methyl-6-(trifluoromethyl)pyrimidin-4-yl)-1,2,5-oxadiazepan-5-yl)(2-(3-methyl-1,2,4-oxadiazol-5-yl)phenyl)methanone] | 9 | 100
CCC1CN(C(=O)c2ccccc2-n2nccn2)CCN(c2cc(C)nc(C)n2)O1 (stereo not shown) [Example 112, (2-(2,6-dimethylpyrimidin-4-yl)-7-ethyl-1,2,5-oxadiazepan-5-yl)(2-(2H-1,2,3-triazol-2-yl)phenyl)methanone] | 90 | 101
COCC1CN(C(=O)c2ccccc2-n2nccn2)CCN(c2cc(C)nc(C)n2)O1 (stereo not shown) [Example 113, (2-(2,6-dimethylpyrimidin-4-yl)-7-(methoxymethyl)-1,2,5-oxadiazepan-5-yl)(2-(2H-1,2,3-triazol-2-yl)phenyl)methanone] | 16 | 102
Cc1ccc(-n2nccn2)c(C(=O)N2CCN(c3nc(C)cc(C)n3)OC[C@H]2C)c1 [Example 114, ((6R)-2-(4,6-dimethylpyrimidin-2-yl)-6-methyl-1,2,5-oxadiazepan-5-yl) (5-methyl-2-(2H-1,2,3-triazol-2-yl)phenyl)methanone] | 69 | 96
Cc1ccc(-n2nccn2)c(C(=O)N2CCN(c3nc(C)cc(C#N)n3)OC[C@H]2C)c1 [Example 115, 6-methyl-2-((6R)-6-methyl-5-(5-methyl-2-(2H-1,2,3-triazol-2-yl)benzoyl)-1,2,5-oxadiazepan-2-yl)pyrimidine-4-carbonitrile] | 103 | 100
Cc1ccc(-n2nccn2)c(C(=O)N2CCN(c3ncc4sccc4n3)OC[C@H]2C)c1 [Example 116, ((6R)-6-methyl-2-(thieno[3,2-d]pyrimidin-2-yl)-1,2,5-oxadiazepan-5-yl) (5-methyl-2-(2H-1,2,3-triazol-2-yl)phenyl)methanone] | 101 | 100
COc1nc(N2CCN(C(=O)c3cc(C)ccc3-n3nccn3)[C@H](C)CO2)ncc1F [Example 117, ((6R)-2-(5-fluoro-4-methoxypyrimidin-2-yl)-6-methyl-1,2,5-oxadiazepan-5-yl)(5-methyl-2-(2H-1,2,3-triazol-2-yl)phenyl)methanone hydrochloride] | 77 | 100
Cc1ccc(-n2nccn2)c(C(=O)N2CCN(c3nc4cc(Cl)ccc4o3)OC[C@H]2C)c1 [Example 118, ((6R)-2-(5-chloro-1,3-benzoxazol-2-yl)-6-methyl-1,2,5-oxadiazepan-5-yl)(5-methyl-2-(2H-1,2,3-triazol-2-yl)phenyl)methanone] | 101 | 102
Cc1ccc(-n2nccn2)c(C(=O)N2CCN(c3ccc(F)cn3)OC[C@H]2C)c1 [Example 119, ((6R)-2-(5-fluoropyridin-2-yl)-6-methyl-1,2,5-oxadiazepan-5-yl)(5-methyl-2-(2H-1,2,3-triazol-2-yl)phenyl)methanone] | 48 | 92
COc1cccc(N2CCN(C(=O)c3cc(C)ccc3-n3nccn3)[C@H](C)CO2)c1 [Example 120, ((6R)-2-(3-methoxyphenyl)-6-methyl-1,2,5-oxadiazepan-5-yl) (5-methyl-2-(2H-1,2,3-triazol-2-yl)phenyl)methanone] | 83 | 100
Cc1ccc(-n2nccn2)c(C(=O)N2CCN(c3ccc(Cl)cn3)OC[C@H]2C)c1 [Example 121, ((6R)-2-(5-chloropyridin-2-yl)-6-methyl-1,2,5-oxadiazepan-5-yl) (5-methyl-2-(2H-1,2,3-triazol-2-yl)phenyl)methanone] | 92 | 94

Other lines, results leading:

inhibition at 10 µM (human OX1 receptor) [%] | inhibition at 10 µM (human OX2 receptor) [%] | SMILES
42 | 102 | Cc1nc(C(F)F)cc(N2CCN(C(=O)c3cc(F)ccc3-n3nccn3)C[C@H](C)O2)n1 [Example 100, ((7S)-2-(6-(difluoromethyl)-2-methylpyrimidin-4-yl)-7-methyl-1,2,5-oxadiazepan-5-yl)(5-fluoro-2-(2H-1,2,3-triazol-2-yl)phenyl)methanone]
50 | 101 | Cc1nc(N2CCN(C(=O)c3cc(F)ccc3-n3nccn3)C[C@H](C)O2)cc(C(F)(F)F)n1 [Example 101, (5-fluoro-2-(2H-1,2,3-triazol-2-yl)phenyl)((7S)-7-methyl-2-(2-methyl-6-(trifluoromethyl)pyrimidin-4-yl)-1,2,5-oxadiazepan-5-yl)methanone]
90 | 100 | Cc1nc(C(F)F)cc(N2CCN(C(=O)c3cc(Cl)ccc3-n3nccn3)C[C@H](C)O2)n1 [Example 103, (5-chloro-2-(2H-1,2,3-triazol-2-yl)phenyl)((7S)-2-(6-(difluoromethyl)-2-methylpyrimidin-4-yl)-7-methyl-1,2,5-oxadiazepan-5-yl)methanone]
104 | 96 | Cc1cc(N2CCN(C(=O)c3cc(Cl)ccc3-n3nccn3)C[C@H](C)O2)nc(C(F)(F)F)n1 [Example 104, (5-chloro-2-(2H-1,2,3-triazol-2-yl)phenyl)((7S)-7-methyl-2-(6-methyl-2-(trifluoromethyl)pyrimidin-4-yl)-1,2,5-oxadiazepan-5-yl)methanone]
96 | 98 | C[C@H]1CN(C(=O)c2cc(Cl)ccc2-n2nccn2)CCN(c2cc(C(F)F)nc(C3CC3)n2)O1 [Example 105, (5-chloro-2-(2H-1,2,3-triazol-2-yl)phenyl)((7S)-2-(2-cyclopropyl-6-(difluoromethyl)pyrimidin-4-yl)-7-methyl-1,2,5-oxadiazepan-5-yl)methanone]
38 | 99 | Cc1cc(N2CCN(C(=O)c3cc(F)c(F)cc3-n3nccn3)C[C@H](C)O2)nc(C)n1 [Example 106, (4,5-difluoro-2-(2H-1,2,3-triazol-2-yl)phenyl)((7S)-2-(2,6-dimethylpyrimidin-4-yl)-7-methyl-1,2,5-oxadiazepan-5-yl)methanone]
37 | 94 | Cc1nc(N2CCN(C(=O)c3cc(F)c(F)cc3-n3nccn3)C[C@H](C)O2)cc(C(F)(F)F)n1 [Example 107, (4,5-difluoro-2-(2H-1,2,3-triazol-2-yl)phenyl)((7S)-7-methyl-2-(2-methyl-6-(trifluoromethyl)pyrimidin-4-yl)-1,2,5-oxadiazepan-5-yl)methanone]
